The values below are quoted from earlier work in patent US20210128795A1, “SPIRAL COATED STENT WITH CONTROLLABLE GRADIENT DEGRADATION, PREPARATION METHOD THEREOF AND APPLICATION THEREOF” (Zhuhai Ruizhan Biomaterials Co., Ltd., priority 2018, published 2021).

Like-named read-outs stand apart in the source and are kept apart here.

The data set concerns rats.

Take `OCCCO` [1,3-propanediol]: the “LD50 value (median lethal dose)” value (rats per os) is given as 16,080 mg/kg.
On to `OCCCCO` [1,4-butanediol], for which the “LD50 value (median lethal dose)” value (rat, in vivo) is listed as 1,525 mg/kg.
